According to patent US8492392B2, “Alkoxy tetrahydro-pyridopyrimidine PDE10 inhibitors” (Merck Sharp & Dohme Corp., priority 2009, dated 2013):

Target: human PDE10A2 (Homo sapiens (Human), UniProt Q9Y233)
Assay: PDE10 fluorescence polarization (IMAP FP) inhibition assay
Type: biochemical
Conditions: FAM-labeled cAMP substrate 50 nM, room temperature, apparent inhibition constant; read-out: PDE10A Ki
Procedure: The activity of the compounds in accordance with the present invention as PDE10 inhibitors may be readily determined without undue experimentation using a fluorescence polarization (FP) methodology that is well known in the art (Huang, W., et al., J. Biomol Screen, 2002, 7: 215).
In a typical experiment the PDE10 inhibitory activity of the compounds of the present invention was determined in accordance with the following experimental method. PDE10A2 was amplified from human fetal brain cDNA (Clontech, Mountain View, Calif.) using a forward primer corresponding to nucleotides 56-77 of human PDE10A2 (Accession No. AF127480, Genbank Identifier 4894716), containing a Kozak consensus sequence, and a reverse primer corresponding to nucleotides 2406-2413 of human PDE10A2 (Accession No. AF127480, Genbank Identifier 4894716). Amplification with Easy-A polymerase (Stratagene, La Jolla, Calif.) was 95° C. for 2 minutes followed by thirty three cycles of 95° C. for 40 seconds, 55° C. for 30 seconds, and 72° C. for 2 minutes 48 seconds. Final extension was 72° C. for 7 minutes. The PCR product was TA cloned into pcDNA3.2-TOPO (Invitrogen, Carlsbad, Calif.) according to standard protocol. AD293 cells with 70-80% confluency were transiently transfected with human PDE10A2/pcDNA3.2-TOPO using Lipofectamine 2000 according to manufacturer specifications (Invitrogen, Carlsbad, Calif.). Cells were harvested 48 hours post-transfection and lysed by sonication (setting 3, 10×5 sec pulses) in a buffer containing 20 mM HEPES, 1 mM EDTA and protease inhibitor cocktail (Roche). Lysate was collected by centrifugation at 75,000×g for 20 minutes. Supernatant containing the cytoplasmic fraction was used for evaluation of PDE10A2 activity. The fluorescence polarization assay for cyclic nucleotide phosphodiesterases was performed using an IMAP® FP kit supplied by Molecular Devices, Sunnyvale, Calif. (product #R8139). IMAP® technology has been applied previously to phosphodiesterase assays (Huang, W., et al., J. Biomol Screen, 2002, 7: 215). Assays were performed at room temperature in 384-well microtiter plates with an incubation volume of 20.2 μL. Solutions of test compounds were prepared in DMSO and serially diluted with DMSO to yield 8 μL of each of 10 solutions differing by 3-fold in concentration, at 32 serial dilutions per plate. 100% inhibition is determined using a known PDE10 inhibitor, which can be any compound that is present at 5,000 times its Ki value in the assay described as follows, such as papaverine (see Siuciak, et al. Neuropharmacology (2006) 51:386-396; Becker, et al. Behav Brain Res (2008) 186(2):155-60; Threlfell, et al., J Pharmacol Exp Ther (2009) 328(3):785-795), 2-{4-[pyridin-4-yl-1-(2,2,2-trifluoroethyl)-1H-pyrazol-3-yl]phenoxymethyl}quinoline succinic acid or 2-[4-(1-methyl-4-pyridin-4-yl-1H-pyrazol-3-yl)-phenoxymethyl]quinoline succinic acid (see Schmidt, et al. J Pharmacol Exp Ther (2008) 325:681-690; Threlfell, et al., J Pharmacol Exp Ther (2009) 328(3): 785-795). 0% of inhibition is determined by using DMSO (1% final concentrations).
A Labcyte Echo 555 (Labcyte, Sunnyvale, Calif.) is used to dispense 200 nL from each well of the titration plate to the 384 well assay plate. A solution of enzyme (1/1600 dilution from aliquots; sufficient to produce 20% substrate conversion) and a separate solution of FAM-labeled cAMP PDE from Molecular Devices (product #R7506), at a final concentration of 50 nM are made in the assay buffer (10 mM Tris HCl, pH 7.2, 10 mM MgCl2, 0.05% NaN3 0.01% Tween-20, and 1 mM DTT). The enzyme and the substrate are then added to the assay plates in two consecutive additions of 10 μL, and then shaken to mix. The reaction is allowed to proceed at room temperature for 30 minutes. A binding solution is then made from the kit components, comprised of 80% Solution A, 20% Solution B and binding reagent at a volume of 1/600 the total binding solution. […]

Chain of human PDE10A2 (Q9Y233 267-1055): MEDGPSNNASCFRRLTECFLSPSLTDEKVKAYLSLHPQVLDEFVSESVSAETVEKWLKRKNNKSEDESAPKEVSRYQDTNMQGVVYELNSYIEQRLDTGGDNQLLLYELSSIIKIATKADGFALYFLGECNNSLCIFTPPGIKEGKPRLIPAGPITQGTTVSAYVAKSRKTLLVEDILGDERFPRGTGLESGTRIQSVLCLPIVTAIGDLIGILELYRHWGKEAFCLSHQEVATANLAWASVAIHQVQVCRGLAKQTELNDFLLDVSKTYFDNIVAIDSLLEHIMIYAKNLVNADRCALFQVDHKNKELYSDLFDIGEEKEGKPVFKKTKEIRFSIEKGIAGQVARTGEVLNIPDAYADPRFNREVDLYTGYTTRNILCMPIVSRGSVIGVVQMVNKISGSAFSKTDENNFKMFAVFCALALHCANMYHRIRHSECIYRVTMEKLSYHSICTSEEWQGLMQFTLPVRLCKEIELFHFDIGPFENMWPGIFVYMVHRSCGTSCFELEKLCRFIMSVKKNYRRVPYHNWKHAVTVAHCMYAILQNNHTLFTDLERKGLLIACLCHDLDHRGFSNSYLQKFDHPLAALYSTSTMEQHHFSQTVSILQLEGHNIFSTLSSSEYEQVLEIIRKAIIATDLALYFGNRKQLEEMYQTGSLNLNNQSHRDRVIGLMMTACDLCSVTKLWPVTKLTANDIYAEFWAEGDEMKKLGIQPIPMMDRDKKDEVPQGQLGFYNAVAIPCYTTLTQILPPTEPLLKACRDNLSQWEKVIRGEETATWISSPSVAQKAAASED

COCCOc1nc(-c2ccc(Cl)nc2)nc2c1CN(C(=O)c1cnn3ccccc13)CC2 [Compound O-2, [2-(6-chloropyridin-3-yl)-4-(2-methoxyethoxy)-7,8-dihydropyrido[4,3-d]pyrimidin-6(5H)-yl](pyrazolo[1,5-a]pyridin-3-yl)methanone] was tested, and the Ki was 0.93 nM.
With COCCOc1nc(-c2ccc(Cl)nc2)nc2c1CN(C(=O)c1ncn3ccccc13)CC2 [Compound Q-2, [2-(6-chloropyridin-3-yl)-4-(2-methoxyethoxy)-7,8-dihydropyrido[4,3-d]pyrimidin-6(5H)-yl](imidazo[1,5-a]pyridin-1-yl)methanone] the Ki was 0.99 nM.
Work on Cc1ccc(C(=O)N2CCc3nc(-c4ccc(Cl)nc4)nc(OC(C)C)c3C2)cn1 [Compound 1-14, [2-(6-chloropyridin-3-yl)-4-(propan-2-yloxy)-7,8-dihydropyrido[4,3-d]pyrimidin-6(5H)-yl](6-methylpyridin-3-yl)methanone] yielded a Ki of 9.9 nM.
Molecule COc1ccc2[nH]c(C(=O)N3CCc4nc(-c5cccnc5)nc(OC(C)C)c4C3)cc2n1 [Compound 1-20, (5-methoxy-1H-pyrrolo[3,2-b]pyridin-2-yl)[4-(propan-2-yloxy)-2-(pyridin-3-yl)-7,8-dihydropyrido[4,3-d]pyrimidin-6(5H)-yl]methanone] has a Ki of 0.8 nM.
Molecule Cc1ccc(NC(=O)N2CCc3nc(-c4ccc(Cl)nc4)nc(OC(C)C)c3C2)cn1 [Compound 1-11, 2-(6-chloropyridin-3-yl)-N-(6-methylpyridin-3-yl)-4-(propan-2-yloxy)-7,8-dihydropyrido[4,3-d]pyrimidine-6(5H)-carboxamide] has a Ki of 0.6 nM.
COC[C@H](C)Oc1nc(-c2ccc(Cl)nc2)nc2c1CN(C(=O)Nc1ccc(C)nc1)CC2 [Compound P-5, 2-(6-chloropyridin-3-yl)-4-{[(2S)-1-methoxypropan-2-yl]oxy}-N-(6-methylpyridin-3-yl)-7,8-dihydropyrido[4,3-d]pyrimidine-6(5H)-carboxamide] was tested, and the Ki was 0.92 nM.
In the case of CCc1cccc(NC(=O)N2CCc3nc(-c4cccnc4)nc(OC4CCN(C)CC4)c3C2)c1 [Compound 1-7, N-(3-ethylphenyl)-4-[(1-methylpiperidin-4-yl)oxy]-2-pyridin-3-yl-7,8-dihydropyrido[4,3-d]pyrimidine-6(5H)-carboxamide], the Ki is reported as 14 nM.
COC[C@H](C)Oc1nc(-c2ccc(Cl)nc2)nc2c1CN(C(=O)c1ncn3ccccc13)CC2 [Compound T-1, [2-(6-chloropyridin-3-yl)-4-{[(2S)-1-methoxypropan-2-yl]oxy}-7,8-dihydropyrido[4,3-d]pyrimidin-6(5H)-yl](imidazo[1,5-a]pyridin-1-yl)methanone] was tested, and the Ki was 0.43 nM.
COc1cc(NC(=O)N2CCc3nc(-c4ccc(Cl)nc4)nc(O[C@@H]4CCOC4)c3C2)ccn1 [Compound 1-13, 2-(6-chloropyridin-3-yl)-N-(2-methoxypyridin-4-yl)-4-[(3R)-tetrahydrofuran-3-yloxy]-7,8-dihydropyrido[4,3-d]pyrimidine-6(5H)-carboxamide] showed a Ki of 0.84 nM.
CC(C)Oc1nc(-c2ccc(Cl)nc2)nc2c1CN(C(=O)c1cn(C)cn1)CC2 [Compound 1-19, [2-(6-chloropyridin-3-yl)-4-(propan-2-yloxy)-7,8-dihydropyrido[4,3-]pyrimidin-6(5H)-yl](1-methyl-1H-imidazol-4-yl)methanone] showed a Ki of 4.55 nM.
COCCOc1nc(-c2ccc(Cl)nc2)nc2c1CN(C(=O)Oc1ccccc1)CC2 [Compound S-1, phenyl 2-(6-chloropyridin-3-yl)-4-(2-methoxyethoxy)-7,8-dihydropyrido[4,3-d]pyrimidine-6(5H)-carboxylate] was tested, and the Ki was 16.8 nM.
Molecule CC(C)Oc1nc(-c2cccnc2)nc2c1CN(c1nc3ccccc3o1)CC2 [Compound 1-18, 6-(1,3-benzoxazol-2-yl)-4-(propan-2-yloxy)-2-(pyridin-3-yl)-5,6,7,8-tetrahydropyrido[4,3-d]pyrimidine] has a Ki of 15.9 nM.
For CC(C)Oc1nc(-c2ccc(Cl)nc2)nc2c1CN(C(=O)Nc1cnn(C)c1)CC2 [Compound K-2, 2-(6-chloropyridin-3-yl)-N-(1-methyl-1H-pyrazol-4-yl)-4-(propan-2-yloxy)-7,8-dihydropyrido-[4,3-d]pyrimidine-6(5H)-carboxamide], the Ki was 0.9 nM.
COCCOc1nc(-c2ccc(C)nc2)nc2c1CN(C(=O)c1cnn3ccccc13)CC2 [Compound R-1, 4-(2-methoxyethoxy)-2-(6-methylpyridin-3-yl)-6-(pyrazolo[1,5-a]pyridin-3-ylcarbonyl)-5,6,7,8-tetrahydropyrido[4,3-d]pyrimidine] gave a Ki of 12.5 nM.
For Cc1ccc(NC(=O)N2CCc3nc(N4CCCC4)nc(OC(C)C)c3C2)cn1 [Compound N-5, 4-isopropoxy-N-(6-methylpyridin-3-yl)-2-pyrrolidin-1-yl-7,8-dihydropyrido[4,3-d]pyrimidine-6(5H)-carboxamide], the Ki was 31.4 nM.
In the case of CC(C)Oc1nc(-c2ccc(Cl)nc2)nc2c1CN(S(=O)(=O)c1cccnc1)CC2 [Compound 1-17, 2-(6-chloropyridin-3-yl)-4-(propan-2-yloxy)-6-(pyridin-3-ylsulfonyl)-5,6,7,8-tetrahydropyrido[4,3-d]pyrimidine], the Ki is reported as 0.63 nM.
In the case of CC(C)Oc1nc(-c2cccnc2)nc2c1CN(C(=O)Nc1ccc3ccn(C)c3c1)CC2 [Compound 1-8, 4-isopropoxy-N-(1-methyl-1H-indol-6-yl)-2-pyridin-3-yl-7,8-dihydropyrido[4,3-d]pyrimidine-6(5H)-carboxamide], the Ki is reported as 9.2 nM.
